Patent publication US20100130829A1, “MATERIALS AND METHODS FOR DETECTING EARLY CELL MIGRATION EVENTS” (priority 2008, published 2010)

Molecular target: beta2-adrenergic receptors in A431 (Homo sapiens, UniProt P07550)
Conditions: quiescent A431 cells; epinephrine gradient; responses resembled classical dose-dependent responses
Description: Human epidermoid carcinoma A431 cells were obtained from American Type Cell Culture. A431 cells were grown in Dulbecco's modified Eagle's medium (DMEM) supplemented with 10% fetal bovine serum (FBS), 4.5 g/liter glucose, 2 mM glutamine, and antibiotics. For cell culture, ˜4×10^4 cells suspended in 6 μl the medium containing 10% FBS were injected into the chamber, and were cultured at 37° C. under air/5% CO2 until ˜95% confluency was reached (˜1 day). To prevent drying during the culture, the biosensor device was maintained within a petri dish with a cover, and extra cell medium within the dish. The cells were then subject to starvation with the medium without any FBS for overnight. […] The optical system allows one to collect the resonant image of whole sensor at the single cell.
Coming RWG imaging system was used for label-free biosensor cell assays. The imaging system is capable of high resolution imaging, with a spatial resolution of 6 microns in the direction perpendicular to the propagation path of the coupled light, a resolution of about 150 microns in the direction parallel to the propagation path of the coupled light. The cellular responses across the whole sensor were recorded in real time at each pixel (6 microns×6 microns). The cellular responses at defined locations or zones from the inlet to the outlet were averaged to generate location-dependent cellular responses. […]

beta2-adrenergic receptors in A431, sequence (P07550 whole entry): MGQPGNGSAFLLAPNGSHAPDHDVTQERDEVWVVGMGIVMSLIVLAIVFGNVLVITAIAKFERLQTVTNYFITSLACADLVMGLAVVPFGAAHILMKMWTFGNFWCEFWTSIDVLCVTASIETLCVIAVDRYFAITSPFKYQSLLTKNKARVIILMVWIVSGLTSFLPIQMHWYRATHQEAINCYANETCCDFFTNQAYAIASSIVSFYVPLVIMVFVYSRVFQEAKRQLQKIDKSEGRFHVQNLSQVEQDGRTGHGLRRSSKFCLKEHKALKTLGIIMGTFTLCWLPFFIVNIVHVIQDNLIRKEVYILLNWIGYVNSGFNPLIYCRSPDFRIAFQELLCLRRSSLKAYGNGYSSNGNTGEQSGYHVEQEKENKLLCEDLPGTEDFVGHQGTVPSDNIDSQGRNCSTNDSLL

With CNC[C@H](O)c1ccc(O)c(O)c1 [epinephrine] the “chemoattractant determination from location-dependent DMR responses” value was “not a chemoattractant”.
